Reference: patent US10273233B2, “Inhibitors of influenza viruses replication” (Vertex Pharmaceuticals Incorporated, priority 2015, dated 2019)
Structures can show the parent of a compound that is named as a salt. Where two headings read alike, the source gives them in different places.

Assays:
[1] = physchem; settings: thermodynamic from solid
[2] = not given; remark: listed apart in the source
[3] = physchem; settings: thermodynamic from solid; remark: listed apart in the source
[4] = test system: influenza A; test: Influenza A mouse model, Compound (1) with or without oseltamivir; assay type: in vivo, Mice
Protocol: Referring to FIG. 32, the potential for a positive therapeutic interaction between Compound (1) and oseltamivir against influenza A was explored in the mouse model. Mice were challenged with influenza A and dosed with vehicle (10 mL/kg 0.5% MC) or Compound (1) at 1, 3, 10, or 30 mg/kg BID alone, or in combination with 10 mg/kg BID oseltamivir. Therapy was started 48 hours post influenza A infection and continued for 10 days. All of the vehicle-treated controls succumbed to disease by study day 8 (Table 21).

CC(C)(C)[C@@H](CC(=O)O)Nc1nc(-c2c[nH]c3ncc(F)cc23)ncc1F [FF Lot 7]
Final Form (SGF (pH --1.5), 5 min): H3 | concentration, two-stage in vitro dissolution (SGF (pH --1.5), 5 min): 2.053 | Final Form (SGF (pH --1.5), 15 min): H3 | concentration, two-stage in vitro dissolution (SGF (pH --1.5), 15 min): 1.278 | Final Form (SGF (pH --1.5), 30 min): H3 | concentration, two-stage in vitro dissolution (SGF (pH --1.5), 30 min): 2.031 | Final Form (SGF (pH --1.5), 60 min): H3 | concentration, two-stage in vitro dissolution (SGF (pH --1.5), 60 min): 2.40 | Final Form (SIF (no pH Adjustment), 75 min): H3 | concentration, two-stage in vitro dissolution (SIF (no pH Adjustment), 75 min): 0.163 | Final Form (SIF (no pH Adjustment), 90 min): H3 | concentration, two-stage in vitro dissolution (SIF (no pH Adjustment), 90 min): 0.148 | Final Form (SIF (pH --6.4), 105 min): H3 | concentration, two-stage in vitro dissolution (SIF (pH --6.4), 105 min): 1.588 | Final Form (SIF (pH --6.4), 120 min): H3 | concentration, two-stage in vitro dissolution (SIF (pH --6.4), 120 min): 1.534 | Final Form (SIF (pH --6.4), 150 min): H3 | concentration, two-stage in vitro dissolution (SIF (pH --6.4), 150 min): 1.058 | Final Form (SIF (pH --6.4), 180 min): H3 | concentration, two-stage in vitro dissolution (SIF (pH --6.4), 180 min): 0.971 | Final Form (SIF (pH --6.4), 240 min): H3 | concentration, two-stage in vitro dissolution (SIF (pH --6.4), 240 min): 1.497

CC(C)(C)[C@@H](CC(=O)O)Nc1nc(-c2c[nH]c3ncc(F)cc23)ncc1F [H2SO4 Salt]
Final Form (SGF (pH --1.5), 5 min): H2SO4 | concentration, two-stage in vitro dissolution (SGF (pH --1.5), 5 min): 0.407 | Final Form (SGF (pH --1.5), 15 min): H2SO4 | concentration, two-stage in vitro dissolution (SGF (pH --1.5), 15 min): 0.407 | Final Form (SGF (pH --1.5), 30 min): H2SO4 | concentration, two-stage in vitro dissolution (SGF (pH --1.5), 30 min): 0.417 | Final Form (SGF (pH --1.5), 60 min): H2SO4 | concentration, two-stage in vitro dissolution (SGF (pH --1.5), 60 min): 0.399 | Final Form (SIF (no pH Adjustment), 75 min): H2 | concentration, two-stage in vitro dissolution (SIF (no pH Adjustment), 75 min): 0.242 | Final Form (SIF (no pH Adjustment), 90 min): H2 | concentration, two-stage in vitro dissolution (SIF (no pH Adjustment), 90 min): 0.236 | Final Form (SIF (pH --6.4), 105 min): H2 | concentration, two-stage in vitro dissolution (SIF (pH --6.4), 105 min): 1.373 | Final Form (SIF (pH --6.4), 120 min): H2 | concentration, two-stage in vitro dissolution (SIF (pH --6.4), 120 min): 1.284 | Final Form (SIF (pH --6.4), 150 min): H2 | concentration, two-stage in vitro dissolution (SIF (pH --6.4), 150 min): 0.396 | Final Form (SIF (pH --6.4), 180 min): H2 | concentration, two-stage in vitro dissolution (SIF (pH --6.4), 180 min): 0.652 | Final Form (SIF (pH --6.4), 240 min): H2 | concentration, two-stage in vitro dissolution (SIF (pH --6.4), 240 min): 0.789

CC(C)(C)[C@@H](CC(=O)O)Nc1nc(-c2c[nH]c3ncc(F)cc23)ncc1F [HCl Salt]
Final Form (SGF (pH --1.5), 5 min): Amorphous | concentration, two-stage in vitro dissolution (SGF (pH --1.5), 5 min): 14.664 | Final Form (SGF (pH --1.5), 15 min): Amorphous | concentration, two-stage in vitro dissolution (SGF (pH --1.5), 15 min): 16.565 | Final Form (SGF (pH --1.5), 30 min): Amorphous | concentration, two-stage in vitro dissolution (SGF (pH --1.5), 30 min): 14.808 | Final Form (SGF (pH --1.5), 60 min): Amorphous | concentration, two-stage in vitro dissolution (SGF (pH --1.5), 60 min): 15.135 | Final Form (SIF (no pH Adjustment), 75 min): H2 | concentration, two-stage in vitro dissolution (SIF (no pH Adjustment), 75 min): 0.747 | Final Form (SIF (no pH Adjustment), 90 min): H2 | concentration, two-stage in vitro dissolution (SIF (no pH Adjustment), 90 min): 0.964 | Final Form (SIF (pH --6.4), 105 min): H2 | concentration, two-stage in vitro dissolution (SIF (pH --6.4), 105 min): 0.474 | Final Form (SIF (pH --6.4), 120 min): H2 | concentration, two-stage in vitro dissolution (SIF (pH --6.4), 120 min): 0.477 | Final Form (SIF (pH --6.4), 150 min): H2 | concentration, two-stage in vitro dissolution (SIF (pH --6.4), 150 min): 0.749 | Final Form (SIF (pH --6.4), 180 min): H2 | concentration, two-stage in vitro dissolution (SIF (pH --6.4), 180 min): 0.340 | Final Form (SIF (pH --6.4), 240 min): H2 | concentration, two-stage in vitro dissolution (SIF (pH --6.4), 240 min): 0.395

CC(C)(C)[C@@H](CC(=O)O)Nc1nc(-c2c[nH]c3ncc(F)cc23)ncc1F [Hydrate 1 of Compound (1)]
solubility at 2 weeks ([1]; pH 0.84, saline or isotonic): 2150 µg/mL | solubility at 2 weeks ([1]; pH 1.59, saline or isotonic): 1150 µg/mL | solubility at 2 weeks ([1]; pH 2.84, saline or isotonic): 57 µg/mL | solubility at 2 weeks ([1]; pH 4.22, saline or isotonic): 4 µg/mL | solubility at 2 weeks ([1]; pH 5.17, saline or isotonic): 21 µg/mL | solubility at 2 weeks ([1]; pH 5.96, saline or isotonic): 78 µg/mL | solubility at 2 weeks ([1]; pH 6.38, saline or isotonic): 216 µg/mL | solubility at 2 weeks ([1]; pH 6.71, saline or isotonic): 420 µg/mL | solubility at 2 weeks ([1]; pH 7.07, saline or isotonic): 335 µg/mL | solubility at 2 weeks ([1]; pH 7.73, saline or isotonic): 2240 µg/mL | solubility at 2 weeks ([1]; pH 8.13, saline or isotonic): 4830 µg/mL | solubility at 2 weeks ([1]; pH 8.4, saline or isotonic): 4360 µg/mL | USP Definition ([2]; pH 0.84): Slightly Soluble | USP Definition ([2]; pH 1.59): Slightly Soluble | Final Form ([2]; pH 2.84): Hydrate 3 | USP Definition ([2]; pH 2.84): Practically Insoluble | Final Form ([2]; pH 4.22): Hydrate 3 | USP Definition ([2]; pH 4.22): Practically Insoluble | Final Form ([2]; pH 5.17): Hydrate 3 | USP Definition ([2]; pH 5.17): Practically Insoluble | Final Form ([2]; pH 5.96): Hydrate 3 | USP Definition ([2]; pH 5.96): Practically Insoluble | Final Form ([2]; pH 6.38): Hydrate 3 | USP Definition ([2]; pH 6.38): Very Slightly Soluble | Final Form ([2]; pH 6.71): Hydrate 3 | USP Definition ([2]; pH 6.71): Very Slightly Soluble | Final Form ([2]; pH 7.07): Hydrate 3 | USP Definition ([2]; pH 7.07): Very Slightly Soluble | Final Form ([2]; pH 7.73): Hydrate 3 | USP Definition ([2]; pH 7.73): Slightly Soluble | Final Form ([2]; pH 8.13): Hydrate 3 | USP Definition ([2]; pH 8.13): Slightly Soluble | Final Form ([2]; pH 8.4): Hydrate 3 | USP Definition ([2]; pH 8.4): Slightly Soluble | solubility at 5 days ([3]; pH 1.55, fassgf or other biorelevant): 2660 µg/mL | solubility at 5 days ([3]; pH 3.56, aqueous with cosolvent or surfactant or cyclodextrin): 285 µg/mL | solubility at 5 days ([3]; pH 3.96, aqueous with cosolvent or surfactant or cyclodextrin): 135 µg/mL | solubility at 5 days ([3]; pH 4.15, aqueous with cosolvent or surfactant or cyclodextrin): 1150 µg/mL | solubility at 5 days ([3]; pH 4.17, aqueous with cosolvent or surfactant or cyclodextrin): 1640 µg/mL | solubility at 5 days ([3]; pH 4.18, saline or isotonic): 108 µg/mL | solubility at 5 days ([3]; pH 4.79, aqueous with cosolvent or surfactant or cyclodextrin): 89 µg/mL | solubility at 5 days ([3]; pH 4.84, saline or isotonic): 94 µg/mL | solubility at 5 days ([3]; pH 4.93, aqueous with cosolvent or surfactant or cyclodextrin): 108 µg/mL | solubility at 5 days ([3]; pH 5.03, water): 98 µg/mL | solubility at 5 days ([3]; pH 5.04, aqueous with cosolvent or surfactant or cyclodextrin): 512 µg/mL | solubility at 5 days ([3]; pH 5.08, aqueous with cosolvent or surfactant or cyclodextrin): 606 µg/mL | solubility at 5 days ([3]; pH 5.11, fessif): 60 µg/mL | solubility at 5 days ([3]; pH 5.13, aqueous with cosolvent or surfactant or cyclodextrin): 354 µg/mL | solubility at 5 days ([3]; pH 5.22, aqueous with cosolvent or surfactant or cyclodextrin): 1620 µg/mL | solubility at 5 days ([3]; pH 5.39, aqueous with cosolvent or surfactant or cyclodextrin): 110 µg/mL | solubility at 5 days ([3]; pH 5.53, aqueous with cosolvent or surfactant or cyclodextrin): 223 µg/mL | solubility at 5 days ([3]; pH 5.58, saline or isotonic): 228 µg/mL | solubility at 5 days ([3]; pH 5.59, aqueous with cosolvent or surfactant or cyclodextrin): 152 µg/mL | solubility at 5 days ([3]; pH 5.74, aqueous with cosolvent or surfactant or cyclodextrin): 289 µg/mL | solubility at 5 days ([3]; pH 5.78, aqueous with cosolvent or surfactant or cyclodextrin): 1020 µg/mL | solubility at 5 days ([3]; pH 5.83, aqueous with cosolvent or surfactant or cyclodextrin): 1170 µg/mL | solubility at 5 days ([3]; pH 5.97, aqueous with cosolvent or surfactant or cyclodextrin): 272 µg/mL | solubility at 5 days ([3]; pH 6.04, aqueous with cosolvent or surfactant or cyclodextrin): 467 µg/mL | solubility at 5 days ([3]; pH 6.17, aqueous with cosolvent or surfactant or cyclodextrin): 120 µg/mL | solubility at 5 days ([3]; pH 6.18, aqueous with cosolvent or surfactant or cyclodextrin): 170 µg/mL | solubility at 5 days ([3]; pH 6.19, aqueous with cosolvent or surfactant or cyclodextrin): 200 µg/mL | solubility at 5 days ([3]; pH 6.47, fassif): 80 µg/mL | solubility at 5 days ([3]; pH 6.61, aqueous buffer): 945 µg/mL | solubility at 5 days ([3]; pH 6.63, aqueous buffer): 979 µg/mL | solubility at 5 days ([3]; pH 6.7, aqueous with cosolvent or surfactant or cyclodextrin): 360 µg/mL | solubility at 5 days ([3]; pH 7.42, aqueous buffer): 7620 µg/mL | solubility at 5 days ([3]; pH 7.46, aqueous buffer): 6620 µg/mL

CCOC(=O)C1=C[C@@H](OC(CC)CC)[C@H](NC(C)=O)[C@@H](N)C1 [Oseltamivir, oseltamivir, reference compound]
Percent Survival ([4]; Oseltamivir 10 mg/kg BID alone, started +48 hours after infection, 10 days): 0% | protection from mortality ([4]; administered alone: Compound (1) 1 mg/kg BID, oseltamivir 10 mg/kg): failed to protect mice from influenza infection
